viability, T/C data for ten molecules are collected here from PubChem BioAssay AID2060336 (Molecular Pharmacology Branch, DTP, NCI, 2025).

The term viability, T/C denotes the ratio of treated to control.

Where “and” joins values, the source holds several entries; their conditions need not be identical. Identical values can stand only once.
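Note: spheroids exposed to agents for 7 days; 100% = DMSO vehicle control wells.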

One test deals with 958767-090-R-J1-PDC spheroid growth. Description: Anticancer human tumor 958767-090-R-J1-PDC patient-derived head and neck squamous carcinoma cell line growth inhibition [IpAb]. Particulars: compound 0.000316 µM; hits give low values; spheroids with HUVEC and MSC. The source says: Combinatorial screen of targeted agents with ipatasertib and abemaciclib in multi-cell type tumor spheroids
A high-throughput screen of multi-cell type tumor spheroids was designed to identify active combinations of targeted small molecules and ipatasertib or abemaciclib. Complex spheroids include a stromal component modeled by human endothelial cells (HUVEC) and fibroblasts modeled by human mesenchymal stem cells (MSCs). The concentration ranges selected for each drug and investigational agent were based upon clinically achievable concentrations if the clinical Cmax of the agent was known.
Compounds. The drugs and investigational agents: ipatasertib (NSC767898), abemaciclib(NSC768073), selumetinib (NSC741078), trametinib (758246), adavosertib (NSC754352), everolimus (NSC733504), sapanisertib (NSC764658), vemurafenib (NSC761431), venetoclax (NSC766270), copanlisib (NSC809693), apelisib (NSC765974), palbociblib (NSC758247), vemurafenib (NSC761431), dabrafenib (NSC764134), ravoxertinib (NSC781343), BMS-387032 (NSC767048), sotorasib (NSC818433), talazoparib (NSC767125) and afursertib (NSC778305), were obtained from the National Cancer Institute (NCI) Developmental Therapeutics Program Chemical Repository. The FDA-approved anticancer drug set is available from the NCI Developmental Therapeutics Program. […] The stock solutions were prepared in dimethyl sulfoxide (DMSO, Sigma-Aldrich, St. Louis, MO, cat. D2650) at 800-fold the tested concentration and stored at -70 degrees C prior to their use. All drugs and investigational agents were tested over a range starting from a high concentration at or near the clinical Cmax and decreasing in half-log increments. If the clinical Cmax for an agent had not been determined, the highest concentration tested was 10 microM.
NCI60 Cell Culture. NCI60 cell lines were obtained from the NCI Developmental Therapeutics Program Tumor Repository. For each lot of cells, the Repository performed Applied Biosystems AmpFLSTR Identifiler testing with PCR amplification to confirm consistency with the published Identifier STR profile for each cell line. Cells were kept in continuous culture for no more than 20 passages. The optimal seeding densities for each of the cell lines at each time point assessed were determined prior to performing the concentration response studies. Briefly, the NCI60 human tumor lines were grown as monolayers in RPMI 1640 medium supplemented with 10% FBS and 2 mmol/L L-glutamine.
An additional 9 lines were from the NCI60 cell line panel including MDA-MB-231 breast carcinoma, MDA-MB-468 breast carcinoma, MCF7 breast carcinoma, Hs578T breast carcinoma, MALME-3M melanoma, SK-MEL-2 melanoma, SK-OV-3 ovarian carcinoma, DU-145 prostate carcinoma, PC-3 prostate carcinoma, all cell lines along with major genetic alterations are listed on Table 2. Pooled donor human umbilical vein endothelial cells (HUVEC, Lonza, cat. CC-2519) and human mesenchymal stem cells (hMSC, Lonza, cat. PT-2501) were purchased from Lonza (Walkersville, MD).
PDMR cell lines were grown in complete medium (DC medium): Dulbecco's modified Eagle's medium (DMEM)/F12 supplemented with 5% fetal bovine serum (FBS), 2 mM L-glutamine, 100 U/mL penicillin and 100 µg/ml streptomycin, 0.4 µg/ml hydrocortisone, 10 ng/ml epidermal growth factor (EGF) recombinant human protein, 24 µg/mL adenine, and 0.1 mg/mL primocin. During culture from frozen stock vials, PDMR cells were cultured in the same medium containing 10 µM Y-27632 (see Table 3). The PDCs were cultured in complete DMEM/F12 media without 10 microM Y-27632 dihydrochloride for at least two passages prior to the screen. The pooled donor HUVEC and hMSC were cultured in endothelial cell growth medium 2 (PromoCell, Heidelberg, Germany, cat. C-22011) and mesenchymal stem cell growth medium 2 (PromoCell, cat. C-28009), respectively. For all experiments, HUVEC and hMSC were used at passages </=5.
[…]
Consider `CC(C)n1nc(-c2ccc3oc(N)nc3c2)c2c(N)ncnc21`, for which the viability, T/C is 84.9% and 95.3%.

As to `Cn1ncnc1[C@H]1c2n[nH]c(=O)c3cc(F)cc(c23)N[C@@H]1c1ccc(F)cc1`, the viability, T/C is 123% and 91.8%.

The same test, now with this note: compound 0.000949 µM; hits give low values; spheroids with HUVEC and MSC.
With `CC(=O)c1c(C)c2cnc(Nc3ccc(N4CCNCC4)cn3)nc2n(C2CCCC2)c1=O`, the viability, T/C was 76.6% and 103%.

Still in this test, the particulars now being: compound 0.001 µM; hits give low values; spheroids with HUVEC and MSC.
With `CC(C)n1nc(-c2ccc3oc(N)nc3c2)c2c(N)ncnc21`, the viability, T/C is 89.9% and 94.5%.

Consider `Cn1ncnc1[C@H]1c2n[nH]c(=O)c3cc(F)cc(c23)N[C@@H]1c1ccc(F)cc1`, for which the viability, T/C was 81.7% and 109%.

Staying with this test, now noted: compound 0.003 µM; hits give low values; spheroids with HUVEC and MSC.
Regarding `CC(=O)c1c(C)c2cnc(Nc3ccc(N4CCNCC4)cn3)nc2n(C2CCCC2)c1=O`, the viability, T/C is 66.5% and 83.4%.

The test is the same for the next values; noted with them: compound 0.00316 µM; hits give low values; spheroids with HUVEC and MSC.
Turning to `CC(C)n1nc(-c2ccc3oc(N)nc3c2)c2c(N)ncnc21`, the viability, T/C is 74.5% and 73.8%.

In the case of `COc1c(OCCCN2CCOCC2)ccc2c3n(c(=NC(=O)c4cnc(N)nc4)nc12)CCN3`, the viability, T/C is 64.4% and 71.9%.

With `Cn1ncnc1[C@H]1c2n[nH]c(=O)c3cc(F)cc(c23)N[C@@H]1c1ccc(F)cc1`, the viability, T/C was 80.4% and 90.1%.

The same test, now with this note: compound 0.00949 µM; hits give low values; spheroids with HUVEC and MSC.
Take `CC(=O)c1c(C)c2cnc(Nc3ccc(N4CCNCC4)cn3)nc2n(C2CCCC2)c1=O`: the viability, T/C is 62.2% and 75.6%.

For `CC(C)(C)c1cnc(CSc2cnc(NC(=O)C3CCNCC3)s2)o1`, the viability, T/C was 106% and 118%.

Consider `Cn1cnc2c(F)c(Nc3ccc(Br)cc3Cl)c(C(=O)NOCCO)cc21`, for which the viability, T/C is 73% and 64.2%.

Still in this test, the particulars now being: compound 0.01 µM; hits give low values; spheroids with HUVEC and MSC.
Regarding `CC(C)n1nc(-c2ccc3oc(N)nc3c2)c2c(N)ncnc21`, the viability, T/C is 55.9% and 54.9%.

Take `COc1c(OCCCN2CCOCC2)ccc2c3n(c(=NC(=O)c4cnc(N)nc4)nc12)CCN3`: the viability, T/C is 50% and 60.7%.

As to `Cn1ncnc1[C@H]1c2n[nH]c(=O)c3cc(F)cc(c23)N[C@@H]1c1ccc(F)cc1`, the viability, T/C was 73.3% and 91.3%.

Staying with this test, now noted: compound 0.03 µM; hits give low values; spheroids with HUVEC and MSC.
On to `CC(=O)c1c(C)c2cnc(Nc3ccc(N4CCNCC4)cn3)nc2n(C2CCCC2)c1=O`, for which the viability, T/C is 62.2% and 68.8%.

For the molecule `CC(C)(C)c1cnc(CSc2cnc(NC(=O)C3CCNCC3)s2)o1`, the viability, T/C is 97% and 116%.

As to `Cn1cnc2c(F)c(Nc3ccc(Br)cc3Cl)c(C(=O)NOCCO)cc21`, the viability, T/C is 48.8% and 52.3%.

Staying with this test, now noted: compound 0.0316 µM; hits give low values; spheroids with HUVEC and MSC.
As for `C=CCn1c(=O)c2cnc(Nc3ccc(N4CCN(C)CC4)cc3)nc2n1-c1cccc(C(C)(C)O)n1`, the viability, T/C was 86.2% and 89.5%.

For the molecule `CC(C)n1nc(-c2ccc3oc(N)nc3c2)c2c(N)ncnc21`, the viability, T/C was 36.9% and 34.2%.

`CC1(C)CCC(CN2CCN(c3ccc(C(=O)NS(=O)(=O)c4ccc(NCC5CCOCC5)c([N+](=O)[O-])c4)c(Oc4cnc5[nH]ccc5c4)c3)CC2)=C(c2ccc(Cl)cc2)C1`: the viability, T/C is 79.8% and 92%.

Consider `CCCS(=O)(=O)Nc1ccc(F)c(C(=O)c2c[nH]c3ncc(-c4ccc(Cl)cc4)cc23)c1F`, for which the viability, T/C was 86.3% and 103%.

On to `COc1c(OCCCN2CCOCC2)ccc2c3n(c(=NC(=O)c4cnc(N)nc4)nc12)CCN3`, for which the viability, T/C is 34.6% and 39.4%.

Take `Cc1nc(NC(=O)N2CCCC2C(N)=O)sc1-c1ccnc(C(C)(C)C(F)(F)F)c1` (stereo not given): the viability, T/C was 85.3% and 75%.

Turning to `Cn1ncnc1[C@H]1c2n[nH]c(=O)c3cc(F)cc(c23)N[C@@H]1c1ccc(F)cc1`, the viability, T/C is 79.7% and 80.1%.

The same test, now with this note: compound 0.0949 µM; hits give low values; spheroids with HUVEC and MSC.
Turning to `CC(=O)c1c(C)c2cnc(Nc3ccc(N4CCNCC4)cn3)nc2n(C2CCCC2)c1=O`, the viability, T/C was 63.7% and 65.3%.

For `CC(C)(C)c1cnc(CSc2cnc(NC(=O)C3CCNCC3)s2)o1`, the viability, T/C was 85.4% and 100%.

On to `Cn1cnc2c(F)c(Nc3ccc(Br)cc3Cl)c(C(=O)NOCCO)cc21`, for which the viability, T/C was 32.5% and 42.5%.

Staying with this test, now noted: compound 0.1 µM; hits give low values; spheroids with HUVEC and MSC.
As to `C=CCn1c(=O)c2cnc(Nc3ccc(N4CCN(C)CC4)cc3)nc2n1-c1cccc(C(C)(C)O)n1`, the viability, T/C was 72.7% and 72.8%.

Consider `CC(C)n1nc(-c2ccc3oc(N)nc3c2)c2c(N)ncnc21`, for which the viability, T/C was 39.7% and 32.1%.

Take `CC1(C)CCC(CN2CCN(c3ccc(C(=O)NS(=O)(=O)c4ccc(NCC5CCOCC5)c([N+](=O)[O-])c4)c(Oc4cnc5[nH]ccc5c4)c3)CC2)=C(c2ccc(Cl)cc2)C1`: the viability, T/C was 86.8% and 104%.

With `CCCS(=O)(=O)Nc1ccc(F)c(C(=O)c2c[nH]c3ncc(-c4ccc(Cl)cc4)cc23)c1F`, the viability, T/C is 93.5% and 92.7%.

For `COc1c(OCCCN2CCOCC2)ccc2c3n(c(=NC(=O)c4cnc(N)nc4)nc12)CCN3`, the viability, T/C was 15.9% and 25.2%.

`Cc1nc(NC(=O)N2CCCC2C(N)=O)sc1-c1ccnc(C(C)(C)C(F)(F)F)c1` (stereo not given): the viability, T/C was 68.5% and 71.4%.

Regarding `Cn1ncnc1[C@H]1c2n[nH]c(=O)c3cc(F)cc(c23)N[C@@H]1c1ccc(F)cc1`, the viability, T/C is 70.6% and 68.1%.
